Patent publication US10513523B2, “Imidazopyrazines and pyrazolopyrimidines and their use as AMPA receptor modulators” (Janssen Pharmaceutica NV, priority 2015, dated 2019)

Target: GluA1o-γ8 (GRIA1o-CACNG8 fusion construct; TARP γ8 dependent AMPA receptor) (Homo sapiens (Human), UniProt P42261+Q8WXS5)
Assay: Calcium flux assay (FLIPR), inhibition of glutamate response of GluA1o-γ8 channel
Type: cell-based
Details: HEK293 cells stably expressing GRIA1o-CACNG8 fusion; 15 μM glutamate; pIC50 = negative log of IC50 in molar; read-out: GluR1-γ8 (pIC50) (converted)
Source text: This assay was used to test compounds for their ability to inhibit TARP γ8 dependent AMPA receptor activity. The AMPA receptor is a non-selective cation channel activated by glutamate. Ionotropic glutamate receptors normally desensitize too rapidly to allow detectable calcium influx in a FLIPR assay (Strange et al. (2006). “Functional characterisation of homomeric ionotropic glutamate receptors GluR1-GluR6 in a fluorescence-based high throughput screening assay.” Comb Chem High Throughput Screen 9(2): 147-158). But, this desensitization is incomplete, and a substantial steady-state current remains in the sustained presence of glutamate (Cho et al. (2007). “Two families of TARP isoforms that have distinct effects on the kinetic properties of AMPA receptors and synaptic currents.” Neuron 55(6): 890-904).
An in vitro assay was used to determine the potency of test compounds as inhibitors of the glutamate response of the channel formed by GluA1o-γ8. To ensure a 1:1 stoichiometry of GluA10 and γ8 subunits in the expressed channel, a fusion of the cDNAs for GRIA1o and CACNG8 was used. Following Shi et al (2009) “The stoichiometry of AMPA receptors and TARPs varies by neuronal cell type.” Neuron 62(5): […]), the C-terminus of the cDNA for GRI1o was fused to the N-terminus of the cDNA for γ8. The linker sequence was […]. […] A clonal cell line in HEK293 cells stably expressing this construct, with a geneticin selection marker, was generated for use in this assay. Cell expressing the GRIA1o-CACNG8 fusion construct were grown in a monolayer in 96- or 384-well microtiter plates. They were washed with assay buffer (135 mM NaCl, 4 mM KCl, 3 mM CaCl2, 1 mM MgCl2, 5 mM glucose, 10 mM HEPES, pH 7.4, 300 mOs) using a Biotek EL405 plate washer. The cells were then loaded with a calcium-sensitive dye (Calcium-5 or Calcium-6, Molecular Devices) and the test compounds at a range of concentrations. Calcium flux following the addition of 15 μM glutamate was monitored using a Molecular Devices FLIPR Tetra.
The fluorescence in each well was normalized to the fluorescence of negative and positive control wells. […] The responses to glutamate as functions of the test compound concentrations were fitted to a four-parameter logistic function. The fitted parameter corresponding to the midpoint was taken to be the potency of inhibition of the compound.

Sequence of GluA1o-γ8 (GRIA1o-CACNG8 fusion construct; TARP γ8 dependent AMPA receptor) (P42261 other isoform, or with tags, fused parts or gaps): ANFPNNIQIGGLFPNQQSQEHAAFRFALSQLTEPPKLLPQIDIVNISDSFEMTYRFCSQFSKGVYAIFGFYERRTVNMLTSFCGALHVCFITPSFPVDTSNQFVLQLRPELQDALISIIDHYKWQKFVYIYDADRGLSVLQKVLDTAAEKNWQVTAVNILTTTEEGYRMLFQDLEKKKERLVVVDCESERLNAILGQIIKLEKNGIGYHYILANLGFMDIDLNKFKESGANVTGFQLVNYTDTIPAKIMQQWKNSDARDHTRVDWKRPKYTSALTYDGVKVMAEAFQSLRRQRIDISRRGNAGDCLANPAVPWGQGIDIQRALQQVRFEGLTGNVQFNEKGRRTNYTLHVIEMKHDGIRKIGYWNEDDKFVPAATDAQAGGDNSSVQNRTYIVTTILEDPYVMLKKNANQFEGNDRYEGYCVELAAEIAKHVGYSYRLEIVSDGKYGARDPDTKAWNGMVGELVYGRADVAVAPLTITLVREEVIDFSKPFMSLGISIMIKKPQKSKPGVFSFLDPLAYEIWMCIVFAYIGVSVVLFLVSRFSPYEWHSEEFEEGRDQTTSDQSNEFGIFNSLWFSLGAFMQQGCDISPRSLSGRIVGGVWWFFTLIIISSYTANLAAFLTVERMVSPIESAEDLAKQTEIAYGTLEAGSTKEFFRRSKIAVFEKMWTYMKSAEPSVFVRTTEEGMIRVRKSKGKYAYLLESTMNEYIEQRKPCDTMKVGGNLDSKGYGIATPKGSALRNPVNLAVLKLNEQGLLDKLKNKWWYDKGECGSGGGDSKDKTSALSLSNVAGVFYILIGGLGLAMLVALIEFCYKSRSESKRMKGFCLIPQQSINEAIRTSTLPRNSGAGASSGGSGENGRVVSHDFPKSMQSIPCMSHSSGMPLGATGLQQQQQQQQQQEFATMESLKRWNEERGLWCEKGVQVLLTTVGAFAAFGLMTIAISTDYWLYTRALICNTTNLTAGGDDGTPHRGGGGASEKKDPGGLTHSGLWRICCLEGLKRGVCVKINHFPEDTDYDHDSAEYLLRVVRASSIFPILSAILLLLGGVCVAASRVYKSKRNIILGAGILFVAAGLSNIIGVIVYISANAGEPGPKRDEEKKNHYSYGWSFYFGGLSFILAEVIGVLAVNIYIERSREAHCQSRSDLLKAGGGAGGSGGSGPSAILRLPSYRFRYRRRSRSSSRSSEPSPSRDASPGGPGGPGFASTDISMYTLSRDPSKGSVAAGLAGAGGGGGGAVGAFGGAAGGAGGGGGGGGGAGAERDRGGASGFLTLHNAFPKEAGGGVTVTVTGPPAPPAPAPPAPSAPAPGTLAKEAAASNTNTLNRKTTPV

IC50 [nM]	SMILES
0.0794	Cc1cnc(N2CCOCC2)n2nc(-c3ccccc3)c(-c3ccc4[nH]ncc4c3)c12 [Example 212, 4-[3-(1H-Indazol-5-yl)-4-methyl-2-phenyl-pyrazolo[1,5-c]pyrimidin-7-yl]morpholine]
0.501	O=C1Cc2cc(-c3c(-c4ccc(F)cc4)nc4c(N5CC(F)C5)nccn34)ccc2N1 [Example 59, 5-[8-(3-Fluoroazetidin-1-yl)-2-(4-fluorophenyl)imidazo[1,2-a]pyrazin-3-yl]indolin-2-one]
1	O=C1Cc2cc(-c3c(-c4ccccc4)nn4c(N5CCOCC5)nccc34)ccc2N1 [Example 201, 5-(7-Morpholino-2-phenyl-pyrazolo[1,5-c]pyrimidin-3-yl)indolin-2-one]
1.58	CC1C(=O)N(C)CCN1c1nccn2c(-c3ccc4c(c3)CC(=O)N4)c(-c3ccc(F)cc3)nc12 (centres unmarked) [Example 111, 5-(8-(2,4-Dimethyl-3-oxopiperazin-1-yl)-2-(4-fluorophenyl)imidazo[1,2-a]pyrazin-3-yl)indolin-2-one]
5.01	O=c1[nH]c2ccc(-c3c(-c4ccc(F)cc4)nc4c(N5CC6(COC6)C5)nccn34)cc2[nH]1 [Example 26, 5-[2-(4-Fluorophenyl)-8-(6-oxa-2-azaspiro[3.3]heptan-2-yl)imidazo[1,2-a]pyrazin-3-yl]-1,3-dihydrobenzimidazol-2-one]
3.16	O=C1CN(c2nccn3c(-c4ccc(O)cc4)c(-c4ccc(F)cc4)nc23)CCN1 [Example 27, 4-[2-(4-Fluorophenyl)-3-(4-hydroxyphenyl)imidazo[1,2-a]pyrazin-8-yl]piperazin-2-one]
63.1	CC(C)(C)c1nc2c(N3CCC(=O)CC3)nccn2c1-c1ccc2c(c1)CC(=O)N2 [Example 220, 5-[2-tert-Butyl-8-(4-oxo-1-piperidyl)imidazo[1,2-a]pyrazin-3-yl]indolin-2-one]
0.794	CC(=O)N1CCN(c2nccn3c(-c4ccc5[nH]ncc5c4)c(-c4ccc(C#N)cc4)nc23)CC1 [Example 103, 4-[8-(4-Acetylpiperazin-1-yl)-3-(1H-indazol-5-yl)imidazo[1,2-a]pyrazin-2-yl]benzonitrile]
0.501	O=C1CN(c2nccn3c(-c4ccc5c(c4)CC(=O)N5)c(-c4ccc(F)cc4)nc23)CCN1 [Example 32, 5-[2-(4-Fluorophenyl)-8-(3-oxopiperazin-1-yl)imidazo[1,2-a]pyrazin-3-yl]indolin-2-one]
158	CC(C)(C)c1nc2c(N3CCOCC3)nccn2c1-c1ccc2c(c1)CC(=O)N2 [Example 86, 5-(2-tert-Butyl-8-morpholino-imidazo[1,2-a]pyrazin-3-yl)indolin-2-one]
7.94	O=C1Cc2cc(-c3c(-c4ccc(F)cc4)nc4c(N5CCO[C@H](C(F)(F)F)C5)nccn34)ccc2N1 (single isomer, unassigned) [Example 49, (S*)-5-[2-(4-Fluorophenyl)-8-[2-(trifluoromethyl)morpholin-4-yl]imidazo[1,2-a]pyrazin-3-yl]indolin-2-one]
12.6	O=C1Cc2cc(-c3c(-c4ccccc4)nn4cnc(C(F)(F)F)cc34)ccc2N1 [Example 222, 5-[2-Phenyl-5-(trifluoromethyl)pyrazolo[1,5-c]pyrimidin-3-yl]indolin-2-one]
158	O=C1Cc2cc(-c3c(-c4ccccc4)nc4cnccn34)ccc2N1 [Example 134, 5-(2-Phenylimidazo[1,2-a]pyrazin-3-yl)indolin-2-one]
15.8	O=C1Cc2cc(-c3c(C4CCCC4)nc4c(N5CCOCC5)nccn34)ccc2N1 [Example 57, 5-(2-Cyclopentyl-8-morpholino-imidazo[1,2-a]pyrazin-3-yl)indolin-2-one]
12.6	O=C1Cc2cc(-c3c(-c4ccc(F)cc4)nc4c(N5CCO[C@@H](C(F)(F)F)C5)nccn34)ccc2N1 (single isomer, unassigned) [Example 48, (R*)-5-[2-(4-Fluorophenyl)-8-[2-(trifluoromethyl)morpholin-4-yl]imidazo[1,2-a]pyrazin-3-yl]indolin-2-one]
63.1	Oc1ccc(-c2c(-c3ccccc3F)nc3c(N4CCOCC4)nccn23)cc1 [Example 84, 4-[2-(2-Fluorophenyl)-8-morpholino-imidazo[1,2-a]pyrazin-3-yl]phenol]

IC50 [nM]	SMILES
3.98	O=C(c1ccc(F)cc1)c1nc2c(N3CCOCC3)nccn2c1-c1ccc(O)cc1 [Example 149, (4-Fluorophenyl)(3-(4-hydroxyphenyl)-8-morpholinoimidazo[1,2-a]pyrazin-2-yl)methanone]
0.0631	O=C1CCN(c2nccn3c(-c4ccc5c(c4)CC(=O)N5)c(-c4ccc(F)cc4)nc23)CC1 [Example 109, 5-(2-(4-Fluorophenyl)-8-(4-oxopiperidin-1-yl)imidazo[1,2-a]pyrazin-3-yl)indolin-2-one]
1	O=C1Cc2cc(-c3c(-c4ccc(F)cc4)nc4c(N5CCCC5)nccn34)ccc2N1 [Example 45, 5-[2-(4-Fluorophenyl)-8-pyrrolidin-1-yl-imidazo[1,2-a]pyrazin-3-yl]indolin-2-one]
2	CC(=O)N1CCN(c2ncc(C)n3c(-c4ccc5c(c4)CC(=O)N5)c(Cc4ccccc4)nc23)CC1 [Example 114, 5-(8-(4-Acetylpiperazin-1-yl)-2-benzyl-5-methylimidazo[1,2-a]pyrazin-3-yl)indolin-2-one]
0.126	O=C1Cc2cc(-c3c(-c4ccc(F)cc4)nc4c(N5CCOCC5)ncc(Cl)n34)ccc2N1 [Example 163, 5-[5-Chloro-2-(4-fluorophenyl)-8-morpholino-imidazo[1,2-a]pyrazin-3-yl]indolin-2-one]
0.631	C[C@H]1COCCN1c1nccn2c(-c3ccc4c(c3)CC(=O)N4)c(-c3ccc(F)cc3)nc12 [Example 43, 5-[2-(4-Fluorophenyl)-8-[(3S)-3-methylmorpholin-4-yl]imidazo[1,2-a]pyrazin-3-yl]indolin-2-one]
0.158	O=C1Cc2cc(-c3c(-c4ccccc4)nn4c(N5CCC(O)CC5)nccc34)ccc2N1 [Example 187, 5-[7-(4-Hydroxy-1-piperidyl)-2-phenyl-pyrazolo[1,5-c]pyrimidin-3-yl]indolin-2-one]
6.31	CN(C)c1nccn2c(-c3ccc4c(c3)CC(=O)N4)c(C(=O)Nc3ccccc3)nc12 [Example 144, 8-(Dimethylamino)-3-(2-oxoindolin-5-yl)-N-phenyl-imidazo[1,2-a]pyrazine-2-carboxamide]
6.31	O=C1Cc2cc(-c3c(-c4ccc(F)cc4)nc4c(N5CCOCC5)ncc(F)n34)ccc2N1 [Example 161, 5-(5-Fluoro-2-(4-fluorophenyl)-8-morpholinoimidazo[1,2-a]pyrazin-3-yl)indolin-2-one]
63.1	Oc1ccc(-c2c(-c3cccc(F)c3)nc3c(N4CCOCC4)nccn23)cc1 [Example 4, 4-[2-(3-Fluorophenyl)-8-morpholino-imidazo[1,2-a]pyrazin-3-yl]phenol]
1580	CC(C)c1nn2cnc(C(F)(F)F)cc2c1-c1ccc2c(c1)CC(=O)N2 [Example 227, 5-[2-Isopropyl-5-(trifluoromethyl)pyrazolo[1,5-c]pyrimidin-3-yl]indolin-2-one]
0.316	O=C1Cc2cc(-c3c(-c4ccccc4)nn4c(N5CC[C@@H](O)[C@H](F)C5)nccc34)ccc2N1 (relative stereo) [Example 193, trans-5-[7-(3-Fluoro-4-hydroxy-1-piperidyl)-2-phenyl-pyrazolo[1,5-c]pyrimidin-3-yl]indolin-2-one]
63.1	CC(C)(C)c1nn2c(N3CC(F)(F)C3)nccc2c1-c1ccc2c(c1)CC(=O)N2 [Example 183, 5-[2-tert-Butyl-7-(3,3-difluoroazetidin-1-yl)pyrazolo[1,5-c]pyrimidin-3-yl]indolin-2-one]
0.398	O=C1Cc2cc(-c3c(-c4ccccc4)nn4c(N5CCOCC5)ncc(Br)c34)ccc2N1 [Example 207, 5-(4-Bromo-7-morpholino-2-phenyl-pyrazolo[1,5-c]pyrimidin-3-yl)indolin-2-one]
3.98	N#Cc1ccc(-c2nc3c(N4CCNC(=O)C4)nccn3c2-c2ccc3[nH]c(=O)[nH]c3c2)cc1 [Example 211, 4-[3-(2-Oxo-1,3-dihydrobenzimidazol-5-yl)-8-(3-oxopiperazin-1-yl)imidazo[1,2-a]pyrazin-2-yl]benzonitrile]

SMILES	IC50 [nM]
O=C1Cc2cc(-c3c(-c4ccccc4)nn4c(OC5CCCC5)nccc34)ccc2N1 [Example 192, 5-[7-(Cyclopentoxy)-2-phenyl-pyrazolo[1,5-c]pyrimidin-3-yl]indolin-2-one]	7.94
